In patent US10183024B2, “Crystalline forms of ibrutinib” (Apotex Inc., priority 2016, dated 2019):

How the values were obtained:
[1] = PXRD study of crystal form stability on storage in stability chambers; type: physicochemical
Method: Ibrutinib Form APO-I can be characterized by a PXRD diffractogram comprising, among other peaks, characteristic peaks, expressed in degrees 2θ (±0.2°), at 5.1°, 7.6° and 12.5°. Preferably, the PXRD diffractogram further comprises at least three peaks, expressed in degrees 2θ (±0.2°), selected from the group consisting of: 10.1°, 11.1°, 14.2°, 15.4°, 16.3°, 17.3° and 18.7°. More preferably, the PXRD diffractogram further comprises peaks, expressed in degrees 2θ (±0.2°), at 10.1°, 11.1°, 14.2°, 15.4°, 16.3°, 17.3° and 18.7°. PXRD studies of capped and uncapped samples of Ibrutinib Form APO-I have shown that this crystal form is stable following storage in stability chambers maintained at 27° C./60% RH for at least 31 days and 40° C./75% RH for at least 21 days.
Ibrutinib Form APO-II can be characterized by a PXRD diffractogram comprising, among other peaks, characteristic peaks, expressed in degrees 2θ (±0.2°), at 6.4°, 10.1° and 12.8°. Preferably, the PXRD diffractogram further comprises at least three peaks, expressed in degrees 2θ (±0.2°), selected from the group consisting of: 13.8°, 17.6°, 18.4°, 19.4°, 20.4°, 21.0°, 21.7°, 23.2°, 24.1° and 24.9°. More preferably, the PXRD diffractogram further comprises peaks, expressed in degrees 2θ (±0.2°), at 13.8°, 17.6°, 18.4°, 19.4°, 20.4°, 21.0°, 21.7°, 23.2°, 24.1° and 24.9°. PXRD studies of capped and uncapped samples of Ibrutinib Form APO-II have shown that this crystal form is stable following storage in stability chambers maintained at 27° C./60% RH and 40° C./75% RH for at least 25 days.
Ibrutinib Form APO-IV can be characterized by a PXRD diffractogram comprising, among other peaks, characteristic peaks, expressed in degrees 2θ (±0.2°), at 6.4°, 10.2° and 12.9°. Preferably, the PXRD diffractogram further comprises at least three peaks, expressed in degrees 2θ (±0.2°), selected from the group consisting of: 13.9°, 17.7°, 18.4°, 19.4°, 20.5°, 21.3°, 21.8°, 23.2°, 24.2° and 24.9°. More preferably, the PXRD diffractogram further comprises peaks, expressed in degrees 2θ (±0.2°), at 13.9°, 17.7°, 18.4°, 19.4°, 20.5°, 21.3°, 21.8°, 23.2°, 24.2° and 24.9°. PXRD studies of uncapped samples of Ibrutinib Form APO-IV have shown that this crystal form is stable following storage in a stability chambers maintained at 40° C./75% RH for at least 11 months.
Data were acquired on a PANanalytical X-Pert Pro MPD diffractometer with fixed divergence slits and an X'Celerator RTMS detector. The diffractometer was configured in Bragg-Brentano geometry; data was collected over a 2-theta range of 3° to 40° using CuKα radiation at a power of 40 mA and 45 kV. CuKβ radiation was removed using a divergent beam nickel filter. A step size of 0.017° was used. Samples were rotated to reduce preferred orientation effects. Samples were lightly ground prior to analysis.

[2] = cited from earlier work
[3] = 27° C./60% RH, capped and uncapped samples
[4] = 40° C./75% RH, capped and uncapped samples

| SMILES | crystal form stable following storage (PXRD) [1, 3] | crystal form stable following storage (PXRD) [1, 4] | other results |
| --- | --- | --- | --- |
| C=CC(=O)N1CCCC(n2nc(-c3ccc(Oc4ccccc4)cc3)c3c(N)ncnc32)C1 (stereo not shown) [Form APO-II] | at least 25 days | at least 25 days | – |
| C=CC(=O)N1CCCC(n2nc(-c3ccc(Oc4ccccc4)cc3)c3c(N)ncnc32)C1 (stereo not shown) [Form APO-IV] | – | – | crystal form stable following storage (PXRD) ([1]; 40° C./75% RH, uncapped samples): at least 11 months |
| C=CC(=O)N1CCCC(n2nc(-c3ccc(Oc4ccccc4)cc3)c3c(N)ncnc32)C1 (stereo not shown) [Form APO-I] | at least 31 days | at least 21 days | – |
| C=CC(=O)N1CCCC(n2nc(-c3ccc(Oc4ccccc4)cc3)c3c(N)ncnc32)C1 (stereo not shown) [Form A] | – | – | solubility ([2]; drug substance in IMBRUVICA, per AusPAR): pH dependent solubility |
| C=CC(=O)N1CCCC(n2nc(-c3ccc(Oc4ccccc4)cc3)c3c(N)ncnc32)C1 (stereo not shown) [Form B] | – | – | aqueous solubility ([2]; reported for other anhydrous forms): low aqueous solubility |
